Data published in patent publication US4567201A, “Diphenoxypropane derivatives and compositions of antiasthmatic and antiinflammatory agents thereof” (Takeda Chemical Industries, Ltd., priority 1981, dated 1986).
Like-named read-outs stand apart in the source and are kept apart here.

How the values were obtained:
[1] = tested on: leukotriene D4 (LTD4)-induced contraction of the guinea pig ileum; assay: Anti-SRS-A activity: inhibition of LTD4-induced contraction of guinea pig ileum; settings: 50% inhibition of LTD4-induced contraction (60-70% of maximum contraction), drug added 1 minute before LTD4
Text: The present inventors studied the antagonistic action of compound (I)-A against SRS-A using a synthetic LTD4 in the following manner.
The inhibitory effect of the drug on the contractile response (60-70% of maximum contraction) of the ileum of guinea pig (body weight 300-350 g, female and male) to leukotriene D4 (LTD4) was investigated. In Tyrode solution containing atropine (10^-7 M) and mepyramine (10^-6 M), 3×10^-10 or 10^-9 M of LTD4 was repeatedly permitted to act on the guinea pig ileum and after the amplitude of contraction had become constant, a solution of the test drug was added to a final concentration of 10^-9 to 10^-4 M. After 1 minute, the same concentration of LTD4 was further added and the anti-SRS-A activity of the drug was calculated from the change in contraction amplitude by means of the following equation. [formula]
To obtain the IC50 value, the mole concentration of the drug showing a 50% inhibition of the contractile response was determined from plots on a graph.
The drug was used as dissolved in dimethyl sulfoxide. The solvent was used in an amount less than 1% which would not exert any influence on the ileum.

[2] = tested on: bronchoconstriction due to leukotriene D4 (LTD4); assay: Inhibition of bronchoconstriction due to intravenous LTD4 in guinea pigs (Konzett-Rossler); type: in vivo, guinea pig (Hartley strain); settings: for % Inhibition, Experiment 1: 2 minutes before LTD4 10 μg/kg i.v.; for % Inhibition, Experiment 1 / % Inhibition, Experiment 2: 30 seconds after LTD4; for % Inhibition, Experiment 2: 30 minutes before LTD4 10 μg/kg i.v.; for minimal effective dose: Cavia porcellus, iv, dose causing statistically significant difference vs control group, significance level <5%; for inhibitory effect upon the bronchoconstriction compared with Control compound-1 (in words): LTD4, i.v.
Protocol: Guinea pigs of Hartley strain, both male and female, with body weights about 400 g were assigned to groups of 6 individuals, and the bronchoconstriction due to LTD4 were measured according to the method of Konzett-Rossler, [Konzett, H. and Rossler, R.: Naunyn-Schmiedebergs Archiv Fur Experimentelle Pathologie und Pharmakologie 195, 71-74 (1940)]. Each guinea pig was fixed in supine position under urethane anesthesia (1.5 g/kg, intraperitoneal) and the trachea was incised and connected to an artificial respiration apparatus, Rodent Respirator Model 680 [Harvard Apparatus Company, U.S.A.] via a cannula. The branch tube of this tracheal cannula was connected to Bronchospasm Transducer Model 7020 [Ugobasil Biological Research Apparatus, Italy]. Under the conditions of 5 to 7 ml of air per stroke, 70 strokes per minute and a lung loading pressure of 10 cmH2 O, the volume of overflowing air was recorded on Rectigraph-8S (Sanei Sokki Ltd., Japan) via a transducer. After administration of gallamine triethiodide (1 mg/kg, i.v.), 10 μ g/kg of histamine.2HCl was intravenously administered to investigate the response of the animal. Then, a solution of LTD4 in physiological saline (10 μg/kg) was intravenously administered and the bronchoconstriction elicited thereby was recorded for 15 minutes. Two minutes before LTD4 loading, compound (I)-A-1 was intravenously administered in a volume of 0.1 ml per 100 g body weight. Compound (I)-A-1 and LTD4 were administered through a cannula inserted into the jugular vein.
The compound (I)-A-1 was used as dissolved in physiological saline containing sodium hydrogen carbonate, and LTD4 was taken from a stock stored in methanol (1 mg/1 ml methanol) at -70° C.
The bronchoconstriction induced by intravenous administration of 10 μg/kg of LTD4 as given 2 minutes after the administration of physiological saline was maximal at the time of 30 seconds after the administration of LTD4 and, since then, was rapidly attenuated to about 50% at the time of 2 minutes but lasted till 15 minutes. Assuming that the response at complete obstruction is 100%, the values at 30 seconds and 15 minutes were 47.4±6.9% (n=6, Mean±S.E.) and 19.4±2.8% (Mean±S.E.), respectively (S.E.: standard error).
Then the present inventors studied the antagonistic action of the compound (I)-B against SRS-A using a synthetic LTD4 in the manner described on the compound (I)-A.
In each case, the bronchoconstriction following intravenous administration of 10 μg/kg of LTD4 at 2 or 30 minutes after the administration of physiological saline reached a maximum 30 seconds after the administration of LTD4, and then decreased to about 50% at 2 minutes after the administration of LTD4. The response continued for 15 minutes after the administration of LTD4. Repeated experiments using 6 animals per group gave mean degrees of maximum bronchoconstriction (30-second values) of 52.2-67.1% and 54.7-70.1%, respectively, as compared with the state of complete obstruction (100%). In experiment 1, the test compounds (I)-B-1, (I)-B-2 and Control compound-1 were each intravenously administered at two minutes before the administration of LTD4 and inhibitory effect on the bronchoconstriction was examined. The minimum effective doses (causing statistically significant differences as compared with the control group; significance level <5%) were 0.313, 0.313 and 5 mg/kg, respectively. The corresponding inhibition percentages were 41, 52 and 56%, respectively. In experiment 2, the test compounds were intravenously administered 30 minutes before the administration of LTD4 and the effect on the above response was examined. The minimum effective doses were 5, 5, and 20 mg/kg, respectively.
The test compounds were intravenously administered 2 minutes before the
intravenous administration of 10 μg/kg of LTD4.
The test compounds were intravenously administered 30 minutes before the
Each value was calculated from the volume (in percentage) of air […]

Acute toxicity in mice = type: in vivo, mouse (Jcl:ICR strain); settings: 500 mg/kg oral; for Autopsy findings: after 7 days; for symptoms attributable to compound after oral administration: male mice
Protocol: Five 5-week-old male mice of Jcl:ICR strain, weighing 26.0 to 30.5 g, were used. Compound (I)-A-1 was suspended in a 5% solution of gum arabic and administered orally by gastric gavage at the level of 0.2 ml per 10 grams body weight.
Five 5-week-old male mice of Jcl:ICR strain, weighing 26.0 to 30.5 g, were used. Compound (I)-B-1 or (I)-B-2 was suspended in a 5% solution of gum arabic and administered orally by gastric gavage at the level of 0.2 ml per 10 grams body weight.

[3] = tested on: antigen-induced bronchoconstriction; assay: Antigen-induced bronchoconstriction in sensitized guinea pigs; type: in vivo, guinea pig (Hartley strain); settings: for % Inhibition: 2 minutes prior to antigen (EA 1 mg/kg i.v.), one minute after antigen; for minimal effective dose: Cavia porcellus, iv, 2 minutes prior to antigen administration, read-out: minimum effective dose; for inhibitory effect on the antigen-induced bronchoconstriction compared with Control compound-1 (in words): i.v., 2 minutes prior to antigen
Protocol: According to the method of Orange and Moore [Orange, R. P. and Moore, E. G., Journal of Immunology, 116, 392-397 (1976)], Hartley-strain male guinea pigs weighing about 350 g were sensitized by intraperitoneal administration of 1 ml of an emulsion composed of 0.5 ml of physiological saline containing 1 mg of egg alubumin (EA) and 0.5 ml of Freund's complete adjuvant (Difco, USA). Three weeks after the sensitization, the serum antibody levels in the sensitized guinea pigs were determined by the 3-hour PCA reaction in guinea pigs and those guinea pigs that gave positive results in the PCA reaction with 1,000-fold diluted serum samples therefrom were used as the sensitized aminals. Using the Konzett-Rossler method as mentioned under the above paragraph (i), the bronchoconstriction due to the antigen-antibody reaction was induced by intravenous administration of 1 mg/kg of the antigen EA instead of LTD4, and recorded.
The bronchoconstriction in the control group as induced by antigen administration 2 minutes after the intravenous administration of physiological saline reached a maximum one minute after the intravenous administration of the antigen. Gradual recovery followed and the pretreatment state was almost restored in 15 minutes after the induction. Repeated experiments using 6 animals per group gave mean degrees of maximum bronchoconstriction (one-minute values) of 72.8-83.3% as compared with the state of complete obstruction (100%). The test compounds (I)-B-1, (I)-B-2 and Control compound-1 were each intravenously administered 2 minutes prior to antigen administration and the inhibitory effect on the bronchoconstriction was examined. The minimum effective doses were 5, 5 and 20 mg/kg, respectively, and the corresponding inhibition percentages were 51, 52 and 64%, respectively.
The test compounds were intravenously administered 2 minutes prior to
intravenous administration of the antigen.
Each value was calculated from the volume (in percentage) of air
overflowing from the respiratory tract at the time when the response was
maximal, i.e. one minute after administration of the antigen.

[4] = 1.25 mg/kg i.v., **P<0.01 for (I)-B-1 and (I)-B-2
[5] = 5 mg/kg i.v., P<0.001 for (I)-B-1 and Control compound-1, P<0.01 for (I)-B-2
[6] = 5 mg/kg i.v., **P<0.01 for (I)-B-1 and (I)-B-2
[7] = 20 mg/kg i.v., P<0.001 for (I)-B-1 and (I)-B-2, P<0.01 for Control compound-1
[8] = 30 minutes before LTD4, read-out: minimum effective dose, experiment 2
[9] = two minutes before LTD4, read-out: minimum effective dose, experiment 1
[10] = 5 mg/kg i.v., p<0.001 for (I)-B-1, p<0.01 for (I)-B-2

With `CCCc1c(OCC(O)COc2ccc(-c3nn[nH]n3)cc2Br)ccc(C(C)=O)c1O` (stereo not shown) [Compound (I)-A-2, 2-hydroxy-3-propyl-4-[2-hydroxy-3-[2-bromo-4-(tetrazol-5-yl)phenoxy]propoxy]acetophenone] the IC50 [1] was 19 nM.
`CCCc1c(OCCCOc2ccc(-c3nnn[nH]3)cc2Cl)ccc(C(C)=O)c1O` [Compound (I)-A-3, 1-(4-acetyl-3-hydroxy-2-n-propylphenoxy)-3-[2-chloro-4-(tetrazol-5-yl)phenoxy]propane] gave an IC50 [1] of 70 nM.
With `CCCc1c(OCC(O)COc2ccc(C(=O)O)cc2Cl)ccc(C(C)=O)c1O` (stereo not shown) [Compound (I)-B-1, 4-[3-(4-acetyl-3-hydroxy-2-n-propylphenoxy)-2-hydroxypropoxy]-3-chlorobenzoic acid] the “% Inhibition, Experiment 1” value ([2]; 0.313 mg/kg i.v., *P<0.05) was 41%, the “% Inhibition, Experiment 1” value [2, 4] was 51% and the “% Inhibition, Experiment 1” value [2, 5] was 84%. For the same molecule, the “% Inhibition, Experiment 2” value [2, 6] was 42%, the “% Inhibition, Experiment 2” value [2, 7] was 96% and the minimal effective dose [2, 8] was 5 mg/kg. The minimal effective dose [2, 9] was 0.313 mg/kg, the “inhibitory effect upon the bronchoconstriction compared with Control compound-1 (in words)” value [2] was “superior to Control compound-1” and the Autopsy findings (Acute toxicity in mice) was “did not reveal any abnormalities”. For the same molecule, the “symptoms attributable to compound after oral administration” value (Acute toxicity in mice) was “no symptoms”, the “% Inhibition” value ([3]; 1.25 mg/kg i.v.) was 6% and the “% Inhibition” value [3, 10] was 51%. For the same molecule, the “% Inhibition” value ([3]; 20 mg/kg i.v., ***p<0.001) was 75%, the minimal effective dose [3] was 5 mg/kg and the “inhibitory effect on the antigen-induced bronchoconstriction compared with Control compound-1 (in words)” value [3] was “superior to Control compound-1”.
For `CCCc1c(OCCCOc2ccc(C(=O)O)cc2Cl)ccc(C(C)=O)c1O` [Compound (I)-B-2, 4-[3-(4-acetyl-3-hydroxy-2-n-propylphenoxy)propoxy]-3-chlorobenzoic acid], the “% Inhibition, Experiment 1” value ([2]; 0.313 mg/kg i.v., *P<0.05) was 52%, the “% Inhibition, Experiment 1” value [2, 4] was 77% and the “% Inhibition, Experiment 2” value ([2]; 1.25 mg/kg i.v.) was 10%. The “% Inhibition, Experiment 1” value [2, 5] was 79%, the “% Inhibition, Experiment 2” value [2, 6] was 42% and the “% Inhibition, Experiment 2” value [2, 7] was 66%. The minimal effective dose [2, 8] was 5 mg/kg, the minimal effective dose [2, 9] was 0.313 mg/kg and the “inhibitory effect upon the bronchoconstriction compared with Control compound-1 (in words)” value [2] was “superior to Control compound-1”. The Autopsy findings (Acute toxicity in mice) was “did not reveal any abnormalities”, the “symptoms attributable to compound after oral administration” value (Acute toxicity in mice) was “no symptoms” and the “% Inhibition” value ([3]; 1.25 mg/kg i.v.) was 20%. The “% Inhibition” value [3, 10] was 52%, the “% Inhibition” value ([3]; 20 mg/kg i.v., ***p<0.001) was 88% and the minimal effective dose [3] was 5 mg/kg. The “inhibitory effect on the antigen-induced bronchoconstriction compared with Control compound-1 (in words)” value [3] was “superior to Control compound-1”.
With `CCCc1c(OCCCOc2ccc(C(=O)O)c(O)c2)ccc(C(C)=O)c1O` [Control compound-1, reference compound] the IC50 [1] was 420 nM, the “% Inhibition, Experiment 1” value [2, 4] was 14% and the “% Inhibition, Experiment 1” value [2, 5] was 56%. The “% Inhibition, Experiment 2” value [2, 6] was 14%, the “% Inhibition, Experiment 1” value ([2]; 20 mg/kg i.v., ***P<0.001) was 87% and the “% Inhibition, Experiment 2” value [2, 7] was 35%. The minimal effective dose [2, 8] was 20 mg/kg, the minimal effective dose [2, 9] was 5 mg/kg and the “% Inhibition” value ([3]; 1.25 mg/kg i.v.) was 12%. For the same molecule, the “% Inhibition” value [3, 10] was 16%, the “% Inhibition” value ([3]; 20 mg/kg i.v., ***p<0.001) was 64% and the minimal effective dose [3] was 20 mg/kg.
Work on `CCCc1c(OCCCOc2cccc(-c3nn[nH]n3)c2)ccc(C(C)=O)c1O` [Control compound-2, reference compound] yielded an IC50 [1] of 680 nM.
